Article PMC8852625, “A Computer-Aided Approach for the Discovery of D-Peptides as Inhibitors of SARS-CoV-2 Main Protease” (Frontiers in Molecular Biosciences, 2022)
Read-outs that look alike come from different tables or passages of the source.

How the values were obtained:
3CL^pro = conditions: in vivo; cited from earlier work

## ACE-HIE-HIE-PRO-TYR-NME [4P4]
SARS-CoV-2 3CL^pro; 20 μM peptide, 500 nM 3CL^pro, 30 min pre-incubation, 50 µM DABCYL-KTSAVLQ↓SGFRKME-EDANS, 30 min, 37°C, 20 mM Tris pH 7.2, 200 mM NaCl, 1 mM EDTA, 1 mM TCEP, fluorescence 360/460 nm, mean, n = 3
  inhibition (loss) of 3CL^pro activity: more than 80%
SARS-CoV-2 3CL^pro; 20 μM peptide, 500 nM 3CL^pro, 30 min pre-incubation, 50 µM fluorogenic substrate, 37°C, pH 7.2, mean, n = 3
  residual activity of 3CL^pro: below 20%

## CC(C)(C)[C@H](NC(=O)C(F)(F)F)C(=O)N1C[C@H]2[C@@H]([C@H]1C(=O)N[C@H](C#N)C[C@@H]1CCNC1=O)C2(C)C [PF-07321332]
3CL^pro
  phase I clinical trial result: promising results

## ACE-HIE-ALA-PRO-TRP-NME [4P3]
SARS-CoV-2 3CL^pro; pH 7.2
  inhibition (loss) of 3CL^pro activity: more than 80%
  inhibition of 3CL^pro (in words): most potent
  residual activity of 3CL^pro: below 20%
